Patent EP0154117B1 (dated 1985)

Key:
[1] = system: alloreactive cytolytic T lymphocytes (CTL); assay: Induction of alloreactive cytolytic T lymphocytes (CTL) in MLC, 51Cr-release microcytotoxicity assay with P815 target cells; format: cell-based, mouse; conditions: for minimum doses required to cause a significant effect (CTL generation in MLC): compared to control CTL generated in drug-free MLC
B6 Mice [2] = assay: Suppressor cells in treated mice: lymphocytes of treated mice added to a conventional MLC; format: in vivo, mouse; conditions: 3 mg/kg; lymphocytes obtained 5 weeks later; 1-5x10^6 cells added to MLC; dose related
B6 Lymphocytes [3] = assay: Proliferative responses of lymphocytes to Con A and LPS (3H-TdR incorporation); conditions: 1 to 10-^2 µg/ml
B6 Mice [4] = assay: Immunosuppression in vivo: lymphocytes from treated mice stimulated in MLC and tested for CTL cytotoxicity; parameters: species or system mouse; conditions: for cytotoxicity of effector cells from treated mice: after 30 days of treatment
B6 Lymphocytes [5] = assay: Proliferative response of mouse lymphocytes to alloantigens in mixed lymphocyte cultures (MLC); format: cell-based; conditions: 10-^2 and 10^-4 µg/ml; one-way, 5-day MLC

| Structure (SMILES) | generation of CTL ([1]; 1 to 10-^4 µg/ml in MLC) | % lysis (CTL activity) ([1]; 10-^3 µg/ml added 2 days after setting up MLC, p < 0.001 vs control (% lysis = 52.0)) | % lysis (CTL activity) ([1]; 10-^3 µg/ml added at the same time as initiation of MLC, control % lysis = 52.0) | % lysis (CTL activity) ([1]; 10-^3 µg/ml added one day after initiation of MLC, control % lysis = 52.0) | generation of CTL ([1]; 10-^4 mcg/ml) | % lysis (CTL activity) ([1]; 10-^5 mcg/mi added to MLC, p < 0.01 vs control CTL (% lysis = 45.7), 5 days) | duration of the suppressive effect (suppression after removal of compound) ([1]; 10^-3 µg/ml, compound removed from 1 MLC each day by washing, CTL tested after five days) | effect of cells from drug treated mice on CTL generation by normal lymphocytes (B6 Mice [2]) | proliferation of these cells (Con A or LPS stimulated) (B6 Lymphocytes [3]) | CTL generation of lymphocytes from treated mice (B6 Mice [4]; 0.3 mg/kg, day 23 post treatment) | CTL generation by lymphocytes from drug-treated mice (B6 Mice [4]; 3 mg/kg i.p., lymphocytes prepared 2 weeks later, 5-day MLC, all E:T ratios tested) | cytotoxicity of effector cells from treated mice (B6 Mice [4]; 0.3 and 0.75 mg/kg) | CTL activity of lymphocytes from treated mice (B6 Mice [4]; 0.3 to 3.0 mg/kg, day 10 after treatment) | cytotoxicity of effector cells from treated mice (B6 Mice [4]; 1.5 an 3.0 mg/kg) | proliferation of B6 lymphocytes stimulated by D2 lymphocytes (B6 Lymphocytes [5]) | minimum doses required to cause a significant effect (CTL generation in MLC) [1] |
| --- | --- | --- | --- | --- | --- | --- | --- | --- | --- | --- | --- | --- | --- | --- | --- | --- |
| Cl.Cl.NCCNc1ccc(NCCN)c2c1C(=O)c1c(O)ccc(O)c1C2=O | complete failure to generate CTL | 22.0% | 2.7% | 6.4% | consistent failure to generate CTL | 37.0% | irreversible | significantly prevented normal lymphocytes from becoming effective CTL | completely abolished | typical CTL generation was evident | failed to become effective CTL | normal level of cytotoxicity | no CTL activity | still unable to do so | significantly prevented |  |
| COc1cccc2c1C(=O)c1c(O)c3c(c(O)c1C2=O)C[C@@](O)(C(=O)CO)C[C@@H]3O[C@H]1C[C@H](N)[C@H](O)[C@H](C)O1 [Adriamycin, reference compound] |  |  |  |  |  |  |  |  |  |  |  |  |  |  |  | 10^-1 µg/ml |
| Cl.Cl.O=C1c2c(O)ccc(O)c2C(=O)c2c(NCCNCCO)ccc(NCCNCCO)c21 [Novantrone^TM, reference compound] |  |  |  |  |  |  |  |  |  |  |  |  |  |  |  | 10^-3 µg/ml |
